Source: patent US20150005347A1, “NITROGEN-CONTAINING HETEROCYCLIC DERIVATIVE HAVING 2-IMINO GROUP AND PEST CONTROL AGENT INCLUDING THE SAME” (MEIJI SEIKA PHARMA CO., LTD., priority 2012, published 2015)
Read-outs that look alike come from different tables or passages of the source.

Columns and labels:
Assay type in all cases: in vivo
[1] = tested on: Nilaparvata lugens; experiment: Pest control test of Nilaparvata lugens, soil irrigation treatment; conditions: soil irrigation treatment
Method: Test Example 12 Pest Control Test of Nilaparvata lugens
(§1) A rice seedling in pot culture was subjected to soil irrigation treatment with a drug solution of the compound of the present invention at a predetermined concentration, which had been prepared so as to be a 10% acetone water. Three days after the treatment, ten second instar larvae of Nilaparvata lugens were each released thereto. Thereafter, the larvae were left to stand in a thermostatic chamber (16 hours of light period-8 hours of dark period) at 25° C. […] The test was performed in duplicate.
(§2) Mortality of larvae(%)={number of dead larvae/(number of survived larvae+number of dead larvae)}×100

[2] = tested on: Aphis gossypii; experiment: Pest control test of Aphis gossypii, cucumber leaf disk foliar spray; conditions: Aphis gossypii, foliar
Procedure, shortened: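 Cucumber leaf disks (2.0 cm) sprayed with compound at a set concentration in 50% acetone water with 0.05% Tween20, air-dried, then infested with first instar larvae; held at 25 °C, 16 h light/8 h dark. Larval mortality (%) = dead/(survived + dead) × 100; duplicate.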

[3] = tested on: Spodoptera litura; experiment: Pest control test against Spodoptera litura, cabbage leaf disk foliar spray; conditions: Spodoptera litura, foliar
Method: Test Example 2 Pest Control Test Against Spodoptera litura
A leaf disk having a diameter of 5.0 cm was cut out from a cabbage in pot culture, and a drug solution of the compound of the present invention at a predetermined concentration, which had been prepared so as to be a 50% acetone water (0.05% Tween20 available), was sprayed to the leaf disk. After an air drying process, third instar larvae were released thereto. Thereafter, the larvae were left to stand in a thermostatic chamber (16 hours of light period-8 hours of dark period) at 25° C. […] Test in duplicate.
as §2

[4] = tested on: Laodelphax striatella; experiment: Pest control test of Laodelphax striatella, soil irrigation treatment of rice seedling; conditions: soil irrigation treatment
Excerpt: <Soil Irrigation Treatment Test>
Test Example 10 Pest Control Test of Laodelphax striatellua
as §1, with “Laodelphax striatella” for “Nilaparvata lugens”
as §2

[5] = tested on: Oulema oryzae; experiment: Pest control test of Oulema oryzae, soil irrigation treatment; conditions: 0.05 mg/seedling, three days after release
Method: Test Example 13 Pest Control Test of Oulema oryzae
as §1, with “two” for “ten”, “Oulema oryzae” for “Nilaparvata lugens”
as §2

[6] = tested on: Callosobruchus chinensis; experiment: Pest control test against Callosobruchus chinensis, topical treatment of adults
Method: Test Example 5 Pest control test against Callosobruchus chinensis
1 μL (/head) of a drug solution of the compound of the present invention prepared at a predetermined concentration with acetone was treated to the back of Callosobruchus chinensis adults. After the drug treatment, the adults were transferred to a plastic cup and left to stand in a thermostatic chamber at 25° C.
Rate of agonized adults(%)={number of dead adults/(number of survived adults+number of dead adults)}×100

[7] = tested on: Sogatella furcifera exhibiting drug resistance to fipronil; experiment: Soil irrigation test, Sogatella furcifera exhibiting drug resistance to fipronil
Method: Test Example 19 Pest Control Test of Sogatella furcifera
as §1, with “Three days after the treatment, ten second instar larvae of Nilaparvata lugens were each released thereto.” left out
as §2
In addition, for the origin of test pests, bugs collected within the city of Odawara in 2010 as the drug resistant Sogatella furcifera, and bugs collected within the city of Chigasaki in 1970 and then successively reared indoors for a long time as the susceptible populations of Sogatella furcifera were used.

[8] = tested on: Laodelphax striatella exhibiting drug resistance to fipronil; experiment: Soil irrigation test, Laodelphax striatella exhibiting drug resistance to fipronil
Method: Test Example 20 Pest Control Test of Laodelphax striatella
as §1, with “Three days after the treatment, ten second instar larvae of Nilaparvata lugens were each released thereto.” left out
as §2
In addition, for the origin of test pests, bugs collected within the Kumamoto prefecture in 2006 as the drug resistant Laodelphax striatella, and bugs successively reared indoors for a long time as the susceptible populations of Laodelphax striatella were used.

[9] = tested on: Nilaparvata lugens exhibiting drug resistance to imidacloprid; experiment: Foliar spray test, Nilaparvata lugens exhibiting drug resistance to imidacloprid; conditions: 144 h, read-out: mortality of larvae
Method: Test Example 16 Pest Control Test of Nilaparvata lugens
A drug solution of the compound of the present invention at a predetermined concentration, which had been prepared so as to be a 50% acetone water (0.05% Tween20 available), was foliar sprayed to a rice seedling in pot culture. […] Thereafter, the larvae were left to stand in a thermostatic chamber (16 hours of light period-8 hours of dark period) at 25° C. […] Test in duplicate.
as §2
Further, for the origin of test pests, insects of Nilaparvata lugens collected outdoors within the Fukuoka prefecture in 2005 were used.

[10] = tested on: Nilaparvata lugens exhibiting drug resistance to imidacloprid; conditions: soil irrigation
Procedure, shortened: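 Imidacloprid-resistant Nilaparvata lugens collected outdoors in Kumamoto (2007); an indoor-reared Kagoshima population served as the susceptible strain. Potted rice seedlings soil-drenched with compound in 10% acetone water at set concentrations; larvae held at 25° C, 16 h light/8 h dark. Mortality (%) = dead/(survived + dead) × 100, tested in duplicate.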

[11] = 72 h, read-out: mortality of larvae
[12] = read-out: % Mortality, Test Example3 Aphis gossypii
[13] = fipronil-resistant vs susceptible

`FC(F)(F)C(=S)/N=c1\ccccn1Cc1ccc(Cl)nc1` [Compound 1-20, N-[1-((6-chloropyridin-3-yl)methyl)pyridin-2(1H)-ylidene]-2,2,2-trifluoroethanethioamide] was tested, and the “% Mortality, Test Example 12 Nilaparvata lugens” value ([1]; 0.005 mg/pot) was 80%, the “% Mortality, Test Example 12 Nilaparvata lugens” value ([1]; 0.01 mg/pot) was 85% and the “% Mortality, Test Example 12 Nilaparvata lugens” value ([1]; 0.05 mg/pot) was 100%. For the same molecule, the mortality at 20 ppm [2, 11] was ≥ 80%, the mortality at 100 ppm [2, 11] was ≥ 80% and the mortality at 1.25 ppm [2, 12] was 75%. The mortality at 5 ppm [2, 12] was 100%, the mortality at 20 ppm [2, 12] was 100% and the mortality at 100 ppm [2, 12] was 100%. For the same molecule, the mortality at 100 ppm [3, 11] was ≥ 80%, the mortality at 100 ppm ([3]; read-out: % Mortality, Test Example2 Spodoptera litura) was 90% and the “% Mortality, Test Example 10 Laodelphax striatella” value ([4]; 0.005 mg/pot) was 75%. For the same molecule, the “% Mortality, Test Example 10 Laodelphax striatella” value ([4]; 0.01 mg/pot) was 91%, the “% Mortality, Test Example 10 Laodelphax striatella” value ([4]; 0.05 mg/pot) was 100% and the mortality of larvae [5] was ≥ 80%. The mortality of adults ([6]; 0.1 μg/head on the back of adults, twenty four hours after treatment) was ≥ 80%, the “% Mortality, Test Example5 Callosobruchus chinensis” value ([6]; Concentration 10 (ppm)) was 100% and the “% Mortality, Test Example5 Callosobruchus chinensis” value ([6]; Concentration 100 (ppm)) was 100%. The “Insecticidal effects against Sogatella furcifera (mortality of larvae %), Drug resistant populations six days after the treatment” value ([7]; Rate 0.005 mg/pot) was 53%, the “Insecticidal effects against Sogatella furcifera (mortality of larvae %), Drug resistant populations six days after the treatment” value ([7]; Rate 0.01 mg/pot) was 88% and the “insecticidal effects against drug resistant Sogatella furcifera” value ([7]; fipronil-resistant) was “high insecticidal effects”. For the same molecule, the “mortality of larvae against drug resistant populations compared with susceptible populations of Sogatella furcifera” value [7, 13] was “equivalent mortality of larvae”, the “Insecticidal effects against Laodelphax striatella (mortality of larvae %), Drug resistant populations six days after the treatment” value ([8]; Rate 0.005 mg/pot, drug resistant populations) was 79% and the “insecticidal effects against drug resistant Laodelphax striatella” value ([8]; fipronil-resistant) was “high insecticidal effects”. The “mortality of larvae against drug resistant populations compared with susceptible populations of Laodelphax striatella” value [8, 13] was “equivalent mortality of larvae”, the mortality at 20 ppm [9] was ≥ 80% and the “insecticidal effects against drug resistant Nilaparvata lugens” value ([10]; imidacloprid-resistant) was “high insecticidal effects”. For the same molecule, the “mortality of larvae against drug resistant populations compared with susceptible populations of Nilaparvata lugens” value ([10]; imidacloprid-resistant vs susceptible) was “equivalent mortality of larvae”.
